One data set in a line: MT4 CC50 cytotoxicity. Type of data set: cell-based. To be noted: human; MT4 cells, 4-5 days, CellTiter Glo. As to the method:
(§1) HEp-2 (1.5×10^3 cells/well) or MT4 (2×10^3 cells/well) cells were plated in 384-well plates and incubated with the appropriate medium containing 3-fold serially diluted compound ranging from 15 nM to 100,000 nM. Cells were cultured for 4-5 days at 37° C. Following the incubation, the cells were allowed to equilibrate to 25° C., and cell viability was determined by adding CellTiter Glo viability reagent. The mixture was incubated for 10 min, and the luminescence signal was quantified using an Envision plate reader. Cell lines were not authenticated and were not tested for mycoplasma as part of routine use in cytotoxicity assays.

The next data set is described as follows: HEp-2 CC50 cytotoxicity. Type of data set: cell-based. To be noted: human; HEp-2 cells, 4-5 days, CellTiter Glo; read-out: HEp2 CC50. As to the method: as §1
Background: Cellular ATP, detected with luciferase, serves as a proxy for viable cell number.

A further data set has as its system RSV strain A2. Kind of data set: RSV EC50 HEp-2 cytopathic cell protection assay. Type of data set: cell-based. To be noted: human respiratory syncytial virus, 96 h; HEp-2 cells, RSV strain A2, 4 days, Cell TiterGlo; read-out: RSV EC50 HEp2. Background: Cytopathic effects are the visible damage that an infection or toxin causes in cultured cells.
The subject of a further data set is MERS-CoV. Kind of data set: microbe, parasite or virus in culture. It counts as cell-based. To be noted: Middle East respiratory syndrome-related coronavirus, Vero 76, 72 h, read-out: MERS CoV EC50.
The next data set deals with SARS-CoV2-Nluc viruses. Kind of data set: microbe, parasite or virus in culture. Type of data set: cell-based, SARS-CoV-2. To be noted: Severe acute respiratory syndrome coronavirus 2, A549, 48 h.
A short description of data set [1]: A549-hACE2 CC50 cytotoxicity. To be noted: human, A549-hACE2 cells, CellTiter-Glo. It counts as cell-based. As to the method: The cytotoxicity of compounds was determined in A549-hACE2 cells in the following manner. Compounds (200 nL) were spotted onto 384-well Grenier plates prior to seeding 5000 A549-hACE2 cells/well in a volume of 40 μL culture medium. The plates were incubated at 37° C. for 48 hours with 5% CO2. On day 2, 40 μL of CellTiter-Glo (Promega) was added and mixed 5 times. Plates were read for luminescence on an Envision (PerkinElmer) and the CC50 values were calculated using a nonlinear regression model (four parameters).

A short description of the next data set: Huh7 CC50 cytotoxicity. To be noted: human, Huh7 cells, CellTiter-Glo. It counts as cell-based. As to the method:
Human hepatocarcinoma 7 (Huh7) cells were maintained in 10% FCS-containing complete DMEM. On day of assay, cells were trypsinized with 0.1% Trypsin-EDTA, washed and cultured in triplicate at 1-2×10^4 cells/well in 96-well plates with compounds dispensed at graded doses (Hewlett-Packard D300 Digital Dispenser). All wells were normalized to 0.25% DMSO. After 48 h, CellTiter-Gio (Promega) was added and incubated for 10 minutes at room temp before reading on a luminometer. % viability curves were calculated against no compound and no cell control wells. CC50 values (compound concentration for reducing 50% of luminescence signal as a measure of cell viability) were determined using Prism Graphpad software.

Another data set concerns Zika virus strain MR766. The data set can be described thus: Zika EC50 Huh7 XTT assay. To be noted: Huh-7, read-out: Zika EC50 Huh7. Background: Tetrazolium assays rely on reduction of a dye to a coloured formazan, in cell work by metabolically active cells.
Data set [2] concerns Dengue serotype 2 New Guinea C (NGC) strain. The data set can be described thus: DENV EC50 Huh7 qPCR assay. Type of data set: cell-based. To be noted: Dengue virus, Huh-7, Huh7 cells, DENV2 NGC, MOI 0.1, 48 hours. On the procedure: Huh7 (Human hepatocarcinoma 7) cells were maintained in 10% FCS-containing DMEM complete media. On the day of the assay, cells were trypsinized (0.1% Trypsin-EDTA), washed and infected for 2 hours in serum-free DMEM with Dengue serotype 2 New Guinea C (NGC) strain at MOI=0.1 with gentle agitation at 37° C. After 2 hours, cells were washed with serum-free media and suspended in 10% FCS-containing DMEM (Gibco, supplemented with sodium pyruvate, NEAA, Penicillin-Streptomycin). 10^5 cells were plated in triplicate in 96-well plates with compounds dispensed at graded doses (Hewlett-Packard D300 Digital Dispenser). All wells were normalized to 0.25% DMSO. At 48 hours, cells were washed with 1×PBS and all supernatants removed. Total RNA was extracted using RNEasy 96 plates (Qiagen) and used to generate first-strand cDNA using XLT cDNA 5× Supermix (QuantaBio). cDNA was used as a template in a Taqman qPCR duplex reaction specific to DENV2 viral and GAPDH gene expression. EC50 values were determined using Prism Graphpad software, with normalization to a positive control and no compound negative control wells.

Another data set deals with DENV2 NS5 (Dengue virus type 2, UniProt P14340). Kind of data set: DENGUE sshRNA Polymerase IC50. To be noted: 100 nM DENV2 NS5, sshRNA template, 90 minutes at 30° C. Type of data set: biochemical. As to the method: A 244 nucleotide secondary structureless heteropolymeric RNA (sshRNA) with sequence 5′-(UCAG)20(UCCAAG)14(UCAG)20-3′ (SEQ ID NO: 1) is used as the template with 5′-CUG-3′ primer in the DENV2-NS5 polymerase assay. Six two-fold dilutions of compounds starting from 200 nM and no inhibitor control are plated in 96-well plates. […] Enzyme mix is added to compound dilutions and reactions initiated by the addition of a mixture containing 20 μM of three natural NTP plus 2 μM of analog:base matched competing natural NTP containing 1:100 α-^33P-NTP. After 90 minutes at 30° C., 5 μL of the reaction mixtures are spotted on DE81 anion exchange paper. Filter papers are washed three times with Na2HPO4 (125 mM, pH 9) for 5 minutes, rinsed with water and ethanol, then air-dried and exposed to phosphorimager. Synthesized RNA is quantified using Typhoon Trio Imager and Image Quant TL Software and reaction rates are calculated by linear regression using GraphPad Prism 5.0. IC50 values are calculated in Prism by non-linear regression analysis using the dose-response (variable slope) equation (four-parameter logistic equation): Y=Bottom+(Top−Bottom)/(1+10^((LogIC50−X)*HillSlope)).

For the next data set, the target named is RSV RNP complexes (Human respiratory syncytial virus A, UniProt P28887). The data set can be described thus: RSV RNP Polymerase IC50 transcription assay. Type of data set: biochemical. To be noted: crude RSV RNP complexes, 90 min at 30° C. As to the method:
Transcription reactions contained 25 μg of crude RSV RNP complexes in 30 μL of reaction buffer (50 mM TRIS-acetate [pH 8.0], 120 mM potassium acetate, 5% glycerol, 4.5 mM MgCl2, 3 mM DTT, 2 mM EGTA, 50 μg/mL BSA, 2.5 U RNasin, 20 μM ATP, 100 μM GTP, 100 μM UTP, 100 μM CTP, and 1.5 μCi [α-^32P] ATP [3,000 Ci/mmol]). The radiolabeled nucleotide used in the transcription assay was selected to match the nucleotide analog being evaluated for inhibition of RSV RNP transcription. To determine whether nucleotide analogs inhibited RSV RNP transcription, compounds were added using a 6-step serial dilution in 5-fold increments. After a 90 min incubation at 30° C., the RNP, reactions were stopped with 350 μL of Qiagen RLT lysis buffer, and the RNA was purified using a Qiagen RNeasy 96 kit. Purified RNA was denatured in RNA sample loading buffer at 65° C. for 10 min and run on a 1.2% agarose/MOPS gel containing 2M formaldehyde. The agarose gel was dried, exposed to a Storm phosphorimaging screen, and developed using a Storm phosphorimager.

The target in another data set is POLRMT (Homo sapiens, UniProt O00411). Kind of data set: MTRNAP SNI single nucleotide incorporation. Type of data set: biochemical. To be noted: 376 nM POLRMT, 500 μM NTP analog. On the procedure:
A mixture of MTCN buffer (50 mM MES, 25 mM Tris-HCl, 25 mM CAPS, and 50 mM NaCl, pH 7.5), 200 nM 5′-32P-R12/D18, 10 mM MgCl2, 1 mM DTT, and 376 nM POLRMT was preincubated at 30° C. for 1 min. The reaction was started by addition of 500 μM (final) natural NTP or NTP analogs. At selected time points, the reaction mixture was removed and quenched with gel loading buffer containing 100 mM EDTA, 80% formamide, and bromophenol blue, and heated at 65° C. for 5 min. The samples were run on a 20% polyacrylamide gel (8 M urea), and the product formation was quantified using Typhoon Trio Imager and Image Quant TL Software (GE Healthcare, Piscataway, NJ). The rate of single nucleotide incorporation by mt RNA pol was calculated by fitting the product formation using the single exponential equation: [R13]=A(1−e−kt), where [R13] represents the amount (in nM) of the elongated product formed, t represents the reaction time, k represents the observed rate, and A represents the amplitude of the exponential.

Molecules are shown by their SMILES.

Sequence of POLRMT (O00411 42-1230): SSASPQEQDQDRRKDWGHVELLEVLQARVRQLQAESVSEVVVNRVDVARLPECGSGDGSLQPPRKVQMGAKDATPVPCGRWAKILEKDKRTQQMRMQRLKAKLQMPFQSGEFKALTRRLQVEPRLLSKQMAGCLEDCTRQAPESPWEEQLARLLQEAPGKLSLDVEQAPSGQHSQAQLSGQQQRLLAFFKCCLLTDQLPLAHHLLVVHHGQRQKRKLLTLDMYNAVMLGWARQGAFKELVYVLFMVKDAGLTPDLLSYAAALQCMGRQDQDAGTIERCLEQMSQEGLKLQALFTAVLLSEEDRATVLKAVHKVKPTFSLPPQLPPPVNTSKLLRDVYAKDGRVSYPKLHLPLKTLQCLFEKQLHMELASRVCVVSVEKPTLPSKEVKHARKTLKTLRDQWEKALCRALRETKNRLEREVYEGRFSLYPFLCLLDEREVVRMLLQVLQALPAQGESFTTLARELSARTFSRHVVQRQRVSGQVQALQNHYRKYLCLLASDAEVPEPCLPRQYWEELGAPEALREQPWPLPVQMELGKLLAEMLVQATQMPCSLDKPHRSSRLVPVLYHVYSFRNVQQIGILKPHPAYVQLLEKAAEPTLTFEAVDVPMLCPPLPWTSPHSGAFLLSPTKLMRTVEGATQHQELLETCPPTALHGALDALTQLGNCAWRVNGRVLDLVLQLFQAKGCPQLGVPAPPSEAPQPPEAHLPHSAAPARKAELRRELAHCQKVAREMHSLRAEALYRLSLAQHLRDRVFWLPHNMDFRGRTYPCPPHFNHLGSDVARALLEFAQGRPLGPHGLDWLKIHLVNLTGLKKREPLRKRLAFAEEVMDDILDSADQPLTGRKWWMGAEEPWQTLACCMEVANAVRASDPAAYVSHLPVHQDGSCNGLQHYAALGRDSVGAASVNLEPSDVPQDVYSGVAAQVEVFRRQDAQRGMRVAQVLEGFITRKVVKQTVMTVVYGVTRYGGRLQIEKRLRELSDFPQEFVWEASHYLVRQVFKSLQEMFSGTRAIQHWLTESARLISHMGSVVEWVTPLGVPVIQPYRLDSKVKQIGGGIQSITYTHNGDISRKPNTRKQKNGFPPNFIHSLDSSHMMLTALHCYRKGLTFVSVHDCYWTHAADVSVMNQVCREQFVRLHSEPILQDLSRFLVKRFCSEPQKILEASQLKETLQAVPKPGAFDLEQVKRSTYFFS
Sequence of RSV RNP complexes (P03421 whole entry): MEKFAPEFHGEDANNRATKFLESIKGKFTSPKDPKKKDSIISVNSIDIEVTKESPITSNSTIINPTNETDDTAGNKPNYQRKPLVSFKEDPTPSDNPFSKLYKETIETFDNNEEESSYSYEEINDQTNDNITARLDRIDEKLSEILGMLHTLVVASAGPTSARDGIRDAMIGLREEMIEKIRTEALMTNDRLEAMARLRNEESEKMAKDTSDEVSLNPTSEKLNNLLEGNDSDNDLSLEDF
Sequence of RSV RNP complexes (P28887 whole entry): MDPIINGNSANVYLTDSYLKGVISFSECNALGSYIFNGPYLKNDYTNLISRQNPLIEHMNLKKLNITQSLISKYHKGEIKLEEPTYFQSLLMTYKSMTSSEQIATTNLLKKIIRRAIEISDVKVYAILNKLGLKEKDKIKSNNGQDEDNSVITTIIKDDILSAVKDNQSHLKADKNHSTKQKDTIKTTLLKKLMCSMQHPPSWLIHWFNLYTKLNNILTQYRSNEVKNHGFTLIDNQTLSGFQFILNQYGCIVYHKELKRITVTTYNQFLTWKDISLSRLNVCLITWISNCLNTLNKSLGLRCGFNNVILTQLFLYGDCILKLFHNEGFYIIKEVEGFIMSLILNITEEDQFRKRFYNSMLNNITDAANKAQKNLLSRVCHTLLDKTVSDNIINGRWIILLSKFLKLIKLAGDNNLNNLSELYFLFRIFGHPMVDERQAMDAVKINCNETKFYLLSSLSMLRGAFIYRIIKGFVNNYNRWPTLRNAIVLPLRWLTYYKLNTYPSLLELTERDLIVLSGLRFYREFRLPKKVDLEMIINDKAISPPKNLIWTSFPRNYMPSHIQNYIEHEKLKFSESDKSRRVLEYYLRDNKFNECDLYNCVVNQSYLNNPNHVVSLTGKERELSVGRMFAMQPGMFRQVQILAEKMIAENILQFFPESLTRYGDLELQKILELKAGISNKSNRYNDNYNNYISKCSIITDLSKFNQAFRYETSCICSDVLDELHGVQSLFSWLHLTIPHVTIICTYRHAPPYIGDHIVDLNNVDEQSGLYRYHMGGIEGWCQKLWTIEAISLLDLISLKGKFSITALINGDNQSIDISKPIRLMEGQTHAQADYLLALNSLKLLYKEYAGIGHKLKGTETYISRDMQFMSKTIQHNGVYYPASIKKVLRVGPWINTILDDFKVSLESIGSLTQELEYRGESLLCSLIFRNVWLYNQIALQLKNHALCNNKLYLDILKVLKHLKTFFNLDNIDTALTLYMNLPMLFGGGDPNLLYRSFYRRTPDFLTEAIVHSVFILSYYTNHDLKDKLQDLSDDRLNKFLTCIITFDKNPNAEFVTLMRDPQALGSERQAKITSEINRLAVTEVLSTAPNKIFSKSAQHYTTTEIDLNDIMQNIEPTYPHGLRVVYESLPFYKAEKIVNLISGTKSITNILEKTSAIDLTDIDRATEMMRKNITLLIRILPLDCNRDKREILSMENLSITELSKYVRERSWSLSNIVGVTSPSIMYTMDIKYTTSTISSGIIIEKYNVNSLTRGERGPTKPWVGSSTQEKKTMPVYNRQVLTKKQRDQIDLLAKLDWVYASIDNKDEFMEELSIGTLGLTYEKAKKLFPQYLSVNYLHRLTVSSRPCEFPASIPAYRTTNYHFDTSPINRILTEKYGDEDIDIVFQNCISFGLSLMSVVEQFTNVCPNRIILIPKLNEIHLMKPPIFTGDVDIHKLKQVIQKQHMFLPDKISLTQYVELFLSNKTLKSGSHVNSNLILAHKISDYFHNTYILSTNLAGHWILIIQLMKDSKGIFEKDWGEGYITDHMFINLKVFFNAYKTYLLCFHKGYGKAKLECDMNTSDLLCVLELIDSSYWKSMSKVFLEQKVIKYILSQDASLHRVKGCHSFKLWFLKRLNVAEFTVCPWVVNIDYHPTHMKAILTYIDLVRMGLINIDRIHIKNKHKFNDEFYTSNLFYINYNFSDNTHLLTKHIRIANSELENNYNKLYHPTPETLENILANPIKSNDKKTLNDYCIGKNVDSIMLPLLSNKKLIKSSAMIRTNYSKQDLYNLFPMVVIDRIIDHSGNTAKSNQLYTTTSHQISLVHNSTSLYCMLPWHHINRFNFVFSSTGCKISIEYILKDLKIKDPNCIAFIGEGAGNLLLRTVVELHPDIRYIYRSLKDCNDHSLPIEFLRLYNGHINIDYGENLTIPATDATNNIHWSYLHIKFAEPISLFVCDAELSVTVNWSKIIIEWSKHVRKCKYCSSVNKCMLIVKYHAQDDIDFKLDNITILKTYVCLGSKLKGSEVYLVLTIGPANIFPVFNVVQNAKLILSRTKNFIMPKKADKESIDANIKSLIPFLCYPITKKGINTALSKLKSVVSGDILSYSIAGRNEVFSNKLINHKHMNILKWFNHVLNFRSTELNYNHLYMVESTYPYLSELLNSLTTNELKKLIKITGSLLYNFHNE

For the molecule `CC(C)(C)C(=O)SCCOP(=O)(OCCSC(=O)C(C)(C)C)OC[C@H]1O[C@@](C#N)(c2csc3c(N)ncnc23)[C@H](O)[C@@H]1O` [Compound C4], the results for the CC50 in the data set “MT4 CC50 cytotoxicity” and in “HEp-2 CC50 cytotoxicity” were 11.1 µM and more than 50 µM, respectively. Also, the EC50 (in general, the midpoint of the concentration-response curve) in the data set with RSV strain A2 stood at 2.7 µM.
As to `N#C[C@@]1(c2csc3c(N)ncnc23)O[C@H](CO)[C@@H](O)[C@H]1O` [Compound C1, (2R,3R,4S,5R)-2-(4-aminothieno[3,2-d]pyrimidin-7-yl)-3,4-dihydroxy-5-(hydroxymethyl)tetrahydrofuran-2-carbonitrile], the EC50 with MERS-CoV turned out to be 2.2 µM; with RSV strain A2 it was 3.1 µM. Besides, the CC50 (usually the concentration giving 50% cytotoxicity) in “MT4 CC50 cytotoxicity” was more than 114 µM; in the data set “HEp-2 CC50 cytotoxicity” it was more than 100 µM.
Take `CCC(CC)COC(=O)[C@H](C)NP(=O)(OC[C@H]1O[C@@](C#N)(c2csc3c(N)ncnc23)[C@H](O)[C@@H]1O)Oc1ccccc1` (stereo partly drawn) [Compound C3, 2-ethylbutyl ((((2R,3S,4R,5R)-5-(4-aminothieno[3,2-d]pyrimidin-7-yl)-5-cyano-3,4-dihydroxytetrahydrofuran-2-yl)methoxy)(phenoxy)phosphoryl)-L-alaninate]: the EC50 in the data set with SARS-CoV2-Nluc viruses was determined as 1.19 µM; in the data set with Zika virus strain MR766, 6.94 µM; in the data set on RSV strain A2, 0.435 µM; in [2], 1.85 µM. For the same molecule, the results for the 50% cytotoxic concentration (CC50) at 48 h (in data set [1]; in “Huh7 CC50 cytotoxicity”) were more than 50 µM and more than 25 µM, respectively. The CC50 was 19 µM in the data set “MT4 CC50 cytotoxicity” and more than 37.2 µM in the data set “HEp-2 CC50 cytotoxicity”.
For `N#C[C@@]1(c2csc3c(N)ncnc23)O[C@H](COP(=O)(O)OP(=O)(O)OP(=O)(O)O)[C@@H](O)[C@H]1O` [Compound C2, ((2R,3S,4R,5R)-5-(4-aminothieno[3,2-d]pyrimidin-7-yl)-5-cyano-3,4-dihydroxytetrahydrofuran-2-yl)methyl tetrahydrogen triphosphate], the figures for the IC50 on DENV2 NS5 and on RSV RNP complexes were 8.96 µM and 2.91 µM, respectively. Besides, on POLRMT, the “MTRNAP SNI (% incorporation)” value stood at 0.61 % incorporation.
